# Entries after “also recorded” stand apart in the source; their conditions may differ. Ends that are not written are not given here.
# Legend:
# [1] = Solubilization of peptides in DPBS plus 1% HSA; format: physicochemical
# Source text: 9079A-G peptides were solubilized in Dulbecco's phosphate buffered saline (DPBS) plus 1% HSA.
# 561 antibody [2] = assay: Chemical reagents as enhancers of peptide-dependent release of CD34+ cells from the 561 antibody (FACS assay); format: cell-based
# Experimental: The ability of chemical reagents to enhance peptide-dependant release of captured CD34+ cells from the 561 antibody was examined. […] Since long-term viability of the low pH-released cells was not known, conditions which could alter the pH to a more neutral value (about pH5-7) were desirable.
# Reagents which were known to affect electrostatic and hydrogen bonding interactions of proteins were tested in addition to excluded-volume polymers. Included in these studies were sodium chloride, sodium acetate, magnesium chloride, calcium chloride, polyethylene glycol (PEG), ficoll, sodium succinate, sodium citrate, protamine sulphate, spermine, and polybrene.
# CD34+ cells = assay: CD34+ cell isolation on automated cell separation apparatus, then culture with cytokines; format: cell-based, human
# Experimental: CD34+ cells were also isolated from human mobilized peripheral blood using the automated cell separation apparatus described in U.S. Pat. No. 5,536,475 and the method essentially as described in WO 95/24969 Both U.S. Pat. No. 5,536,475 and WO 95/24969 are herein expressly incorporated by reference. Chymopapain was used as the control releasing agent, and 25 mg of the peptide 9069N (Table 11) was used as the test releasing agent.
# CD34 cells = assay: Stem cell selection with 9069 antibody, sheep-anti-mouse beads and releasing agent; format: cell-based, human; details: chymopapain release
# 561 antibody [3] = assay: KG1a or tHL60 cell-based FACS assay: release of prebound 561 antibody; format: binding
# Source text: Five peptides representing hexapeptides selected from biopannings were synthesized and tested for their ability to serve as release agents in the KG1a or tHL60 cell-based FACS assay.
# The peptides (see Table 27 below) were synthesized by Research Genetics and tested without purification. The 9069 antibody was used as a positive control and released with the 9069N peptide (Ac-Q Q G W F P-K D) (SEQ ID NO:9). This control served to test for the KG1a cells and the goat-anti-mouse FITC secondary detection antibody. Hexapeptide sequences identified for the 561 antibody were tested for their ability to displace prebound 561 antibody.
# HPLC-purified peptides 561C and D were tested in the cell-based KG1a FACS assay.
# Functional release activity of purified 561D peptide at pH 4 and 6 was tested.
# Functional release activity of purified 561C and 561D peptides at pH 4, 5, 6, 7, 8, and 9 was tested.
# Functional release activity of crude 561A,B,C,D, M, P, Q, CDR2H, CDR2L, CDR3H, CDR3L, 34B, 34C,34D,34E and 34F peptides adjusted to pH 7 and pH unadjusted (~pH3.8-4.3) was tested.
# anti-CD34 antibody, 9069 = assay: KG1a cell FACS assay: release by peptides of 9069 antibody prebound to cells; format: binding, mouse; details: peptide added to KG1a cells with prebound 9069; 10^5 to 10^6 molar excess, 30 min, room temperature
# Experimental: These experiments were performed following a similar procedure to the binding experiments except that the anti-CD34 antibody, 9069, was incubated with KG1a cells first, followed by addition of peptide. The experimental outline is schematically shown below:
# KG1a Cell Assay to Test for Release by Peptides of 9069 Antibody Bound to Cells.
# Anti-CD34 antibody, 9069 (0.i microgram) was incubated with KG1a cells (10^6) for 30 minutes at room temperature (about 22° C.). Molar excesses of 10^5 to 10^6 times the amount of peptide to antibody were tested for the ability to displace the prebound antibody. Peptides were incubated with the antibody-cell complexes for 30 minutes at room temperature (approximately 22° C.). Remaining bound antibody was detected using the FITC-goat anti-mouse IgG reagent described in Example 3.
# Analysis of the variant peptide, 9069Q2, was done in parallel with the 9069N peptide. This analysis provides quality control information on reagents including the antibody, 9069, and the cells, KG1a. FACScan assays included a negative control of KG1a cells alone and positive control samples of KG1a cells with the 9069 antibody bound and detected with a secondary antibody, goat-anti-mouse IgG-FITC.
# [4] = Table 7, mobilized peripheral blood (5.86% CD34 start)
# [5] = Table 10, mobilized peripheral blood (0.68% CD34 start)
# [6] = crude peptide, pH unadjusted (around pH 3.8-4.3; low pH ~4)
molecule,measurement,setting,value
"PGSPLGKD [Peptide 9079A, PGSPLG--KD]",solubility,[1],solubilized
"NLQGEFKD [Peptide 9079D, NLQGEF--KD]",solubility,[1],solubilized
CC(=O)[O-].[Na+] [sodium acetate],enhancement of peptide mediated release of CD34+ selected cells,561 antibody [2],significant activity as an enhancement reagent
"IQEFGVKD [Peptide 9079F, IQEFGV--KD]",solubility,[1],solubilized
Chymopapain,purity of the positively selected CD34+ cells,"CD34+ cells; mobilized peripheral blood, 25 mg peptide 9069N or chymopapain control",greater than 90%
same,expansion in cell number,"CD34+ cells; released CD34+ cells of first experiment, culture with cytokines for 12 days",68 fold
same,% CD34 CELLS Negative Fraction,CD34 cells; [4],2.5%
same,% CD34 CELLS Positive Fraction,CD34 cells; [4],94%
same,% Capture,CD34 cells; [4],62%
same,% CD34 CELLS Negative Fraction,"CD34 cells; Table 8, mobilized peripheral blood (1.05% CD34 start)",0.16%
same,% CD34 CELLS Negative Fraction,"CD34 cells; Table 9, bone marrow (3.66% CD34 start)",0.34%
same,% CD34 CELLS Negative Fraction,CD34 cells; [5],0.12%
same,% Yield,CD34 cells; [5],68%
"RSFYYRD [Peptide 9079E, RSFYYR--D]",solubility,[1],insoluble
"[Cl-].[Cl-].[Mg+2] [magnesium chlordie, magnesium chloride]",enhancement of peptide mediated release of CD34+ selected cells,561 antibody [2],Less dramatic results
"QYTQPKD [Peptide 9079C, QYTQPK--D]",solubility,[1],solubilized
A I Y P G D G D T R Y T Q K F V V (AIYPGDGDTRYTQKFVV) [Peptide 561CDR2H],release activity on prebound 561 antibody,"561 antibody [3]; crude peptide, pH 7",none of these peptides showed release activity; also recorded: did not show release activity
same,release activity on prebound 561 antibody,561 antibody [3]; [6],showed functional release activity; also recorded: showed significant release activity
same,release activity on prebound 561 antibody,561 antibody [3]; pH 6,did not show release activity
"KDVYSLWPKD [Peptide 9079H, KD--VYSLWP--KD]",solubility,[1],solubilized
A D G A-L I S Q V S-Q A K D (ADGALISQVSQAKD) [Peptide 9069C],% Inhibition of Binding,"anti-CD34 antibody, 9069",32%
A C K W C R (ACKWCR) [Peptide 561M],release activity on prebound 561 antibody,"561 antibody [3]; crude peptide, pH 7",none of these peptides showed release activity; also recorded: did not show release activity
same,release activity on prebound 561 antibody,561 antibody [3]; [6],showed functional release activity; also recorded: showed significant release activity
same,release of 561 antibody prebound to KG1a or tHL60 cells (in words),"561 antibody [3]; crude peptides, pH not stated",able to release 561 antibody prebound to KG1a or tHL60 cells
same,release activity on prebound 561 antibody,561 antibody [3]; pH 6,did not show release activity
"YSRLGFKD [Peptide 9079B, YSRLGF--KD]",solubility,[1],solubilized

# — patent publication US6017719A, “Positive and positive/negative cell selection mediated by peptide release” (Nexell Therapeutics, Inc., priority 1995, dated 2000)
